Data as given in paper PMC6154603, “Study on the Rationality for Antiviral Activity of Flos Lonicerae Japonicae-Fructus Forsythiae Herb Couple Preparations Improved by Chito-Oligosaccharide via Integral Pharmacokinetics” (Molecules : A Journal of Synthetic Chemistry and Natural …, 2017).

Columns and labels:
[1] = Pharmacokinetics of caffeic acid derivatives after oral administration of the FLJ-FF herb couple; design: species or system rats; conditions: rat, in vivo
Method: The pharmacokinetics of caffeic acid derivatives in the FLJ-FF herb couple was studied in our previous study. Integral concentrations at each time point for the eight components were calculated based on the AUC-weighting method. The weighting coefficient for each component was calculated using Equations (4) and (5). […] AUC was determined using GraphPad Prism for Windows, version 5 (Graph Pad Software Inc., San Diego, CA, USA). […] Subsequently, plasma was prepared by centrifugation at 1816× g for 7 min and immediately analyzed or stored at −70 °C for further analysis after being mixed with 10 μL of 5% formic acid. The treatment and UPLC-ESI-MS/MS analysis for samples have been studied previously.

Caco-2 cell = assay: In vitro Caco-2 cell transport model; format: in vitro ADME, human; conditions: Shuang-Huang-Lian, with 0.1% (w/v) of COS vs control
Text: The protocol of Caco-2 cell study was shown previously.

influenza A virus (H1N1) = assay: microbe, parasite or virus in culture; format: cell-based; conditions: for IC50: Influenza A virus, H1N1, MDCK, tested 0.0625-1.0000 mM, unit inferred, read-out: IC50 (anti-viral activity)
[2] = In vivo pharmacokinetic study of FLJ-FF herb couple preparations with or without COS; design: species or system rats; conditions: rat, po
Text: The rats were administrated product A and A4 at the dosages of at the dosage of 32 g raw medicine per kilogram, product B and B4 at the dosage of 64 g raw medicine per kilogram, product C and C4 at the dosage of 48 g raw medicine per kilogram, and product D and D4 at the dosage of 160 g raw medicine per kilogram, respectively.

[3] = system: influenza virus strain, A/PR8/34 (H1N1); format: cell-based; conditions: compared with PBS group; ribavirin 20 mg/kg orally as positive control; Figure S1

| SMILES | AUC(0-inf) [1] [ng·h/mL] | AUC(0-t) [1] [ng·h/mL] | Cmax [1] [ng/mL] | MRT last [1] [h] | Tmax [1] [h] | half-life [1] [h] | highest Papp-value increase (Caco-2 cell) [fold] | IC50 (influenza A virus (H1N1)) [µM] | AUC ([2]; 25 mg/kg, AUC (Absorption Enhancer)) [ng·h/mL] | AUC ([2]; AUC (Control)) [ng·h/mL] | antiviral activity, folds lower than that of forsythoside A (influenza A virus (H1N1)) [folds] | inhibition rate on influenza virus [3] |
| --- | --- | --- | --- | --- | --- | --- | --- | --- | --- | --- | --- | --- |
| O=C(C=Cc1ccc(O)c(O)c1)OC1CC(O)(C(=O)O)CC(O)C1OC(=O)C=Cc1ccc(O)c(O)c1 (stereo not drawn) [3,4-dicaffeoylquinic acid] | 213 | 141 | 66.7 ± 15.4 | 7.6 | 0.167 | 9.18 ± 0.649 | 5.86 | 401 |  |  |  |  |
| O=C(/C=C/c1ccc(O)c(O)c1)O[C@@H]1C[C@](O)(C(=O)O)C[C@@H](O)[C@H]1O [Chlorogenic acid] | 3160 | 3220 | 2500 ± 438 | 4.74 |  | 3.9 ± 0.699 |  | 754 | 968 | 638 | 2.47 |  |
| O=C(/C=C/c1ccc(O)c(O)c1)O[C@@H]1C[C@](O)(C(=O)O)C[C@@H](OC(=O)/C=C/c2ccc(O)c(O)c2)[C@H]1O [3,5-dicaffeoylquinic acid] | 54.2 | 53.1 | 70.5 ± 28.1 | 6.39 | 0.1667 ± 0 | 5.95 ± 0.559 | 8.66 | 393 |  | 57.7 |  |  |
| O=C(C=Cc1ccc(O)c(O)c1)OC1C(O)CC(O)(C(=O)O)CC1O (stereo not drawn) [Cryptochlorogenic acid, cryptochlorogenic acid] | 726 | 713 | 950 ± 201 | 4.84 | 0.167 | 4.64 ± 1.03 | 3.13 | 735 |  |  |  |  |
| NC(=O)c1ncn([C@@H]2O[C@H](CO)[C@@H](O)[C@H]2O)n1 [ribavirin] |  |  |  |  |  |  |  |  |  |  |  | remarkable increase |
| O=C(C=Cc1ccc(O)c(O)c1)OC1CC(O)(C(=O)O)CC(O)C1O (stereo not drawn) [Neochlorogenic acid] | 715 | 579 | 575 ± 170 | 5.3 | 0.167 | 3.49 ± 0.423 |  | 722 |  |  |  |  |
